The nature of this data set: Solubility of cholesteric liquid crystal monomer in hot (boiling) solvents. The class given is physicochemical. As to the method:
Comparison of the Solubility of Various Monomers in 1,3-dioxolane and other Solvents.
4-(2-Acryloyloxy-ethoxy)-benzoic acid 4′-cyano-biphenyl-4-yl ester is a cholesteric liquid crystal monomer with the structure given below and can be prepared as described in European Patent Application Publication No. 834754, incorporated herein by reference. [drawing 2]
4-(2-Acryloyloxy-ethoxy)-benzoic acid 4′-cyano-biphenyl-4-yl ester was dissolved in hot (boiling) tetrahydrofuran and hot 1,3-dioxolane. Only 20% of the monomer dissolved in the tetrahydrofuran, while 40% dissolved in the 1,3-dioxolane.

Experimental findings from patent US6913708B2, “Cholesteric liquid crystal drying process and solvent” (3M Innovative Properties Company, priority 2003, dated 2005) are described below.

Regarding `C=CC(=O)OCCOc1ccc(C(=O)Oc2ccc(-c3ccc(C#N)cc3)cc2)cc1` [4-(2-Acryloyloxy-ethoxy)-benzoic acid 4′-cyano-biphenyl-4-yl ester], the “fraction of the monomer dissolved” value runs as follows: (hot 1,3-dioxolane) 40%; (hot (boiling) tetrahydrofuran) 20%.
